# Target: T1, ERα (Homo sapiens, UniProt P03372)
# T1 construct: host or cells: MCF7
# T1 sequence (P03372 1-595): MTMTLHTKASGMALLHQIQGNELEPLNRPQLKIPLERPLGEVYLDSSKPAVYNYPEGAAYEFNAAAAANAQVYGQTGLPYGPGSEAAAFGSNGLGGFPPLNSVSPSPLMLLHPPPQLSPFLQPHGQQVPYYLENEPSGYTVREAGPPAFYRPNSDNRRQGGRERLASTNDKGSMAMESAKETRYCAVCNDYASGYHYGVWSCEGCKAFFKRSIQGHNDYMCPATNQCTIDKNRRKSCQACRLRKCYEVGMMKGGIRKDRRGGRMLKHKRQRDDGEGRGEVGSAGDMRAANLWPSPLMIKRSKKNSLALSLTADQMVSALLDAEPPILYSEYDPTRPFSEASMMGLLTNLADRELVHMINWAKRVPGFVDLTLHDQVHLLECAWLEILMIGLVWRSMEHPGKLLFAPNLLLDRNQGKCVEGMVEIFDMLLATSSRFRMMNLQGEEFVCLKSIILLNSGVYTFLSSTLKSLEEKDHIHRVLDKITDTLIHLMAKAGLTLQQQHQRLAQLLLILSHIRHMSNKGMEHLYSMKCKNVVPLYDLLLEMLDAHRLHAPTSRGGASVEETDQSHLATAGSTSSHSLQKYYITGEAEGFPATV
# Assay: Estrogen receptor degradation activity (breast cancer cell ERα in cell western assay)
# Type: cell-based
# Conditions: MCF7 cells, 0.3 μM, 4 hours, % of ERα levels decrease relative to fulvestrant
# Protocol: Said test involves measuring the in vitro degradation activity of the compounds of the Table 1a.
# The measurements of the degradation activities were made using a breast cancer cell ERα in cell western assay as described hereunder.
# MCF7 cells (ATCC) were seeded in 384 wells microplate (collagen coated) at a concentration of 10000 cells/30 μL per well in red phenol free MEM alpha medium (invitrogen) containing 5% charcoal dextran striped FBS. The following day, 9 points serial 1:5 dilution of each compound was added to the cells in 2.5p L at final concentrations ranging from 0.3-0.0000018 μM (in table 2), or 0.1 μM for fulvestrant (using as positive control). At 4 hours post compound addition the cells were fixed by adding 25 μL of formalin (final concentration 5% formalin containing 0.1% triton) for 10 minutes at room temperature and then washed twice with PBS. Then, 50 μL of LI-COR blocking buffer containing 0.1% Triton was added to plate for 30 minutes at room temperature. LI-COR blocking buffer was removed and cells were incubated overnight at cold room with 50 μL anti-ER rabbit monoclonal antibody (Thermo scientific MA1-39540) diluted at 1:1000 in LI-COR blocking buffer containing 0.1% tween-20. Wells which were treated with blocking buffer but no antibody were used as background control. Wells were washed twice with PBS (0.1% tween-20) and incubated at 37° C. for 60 minutes in LI-COR (0.1% tween-20) containing goat anti-rabbit antibody Alexa 488 (1:1000) and Syto-64 a DNA dye (2 μM final concentration). Cells were then washed 3 times in PBS and scanned in ACUMEN explorer (TTP-Labtech). Integrated intensities in the green fluorescence and red fluorescence were measured to determine the levels of ERα and DNA respectively.
# The degradation activity with respect to estrogen receptors in this test is given by the concentration which degrades 50% of the estrogen receptor (or IC50) in nM.
# The % of ERα levels decrease were determined as follows: % inhibition=100*(1−(sample−fulvestrant: DMSO−fulvestrant)).
row,SMILES,% Degradation At 0.3 μM [%]
1,"Cc1cc(F)cc(C)c1C1=C(c2ccc(CC3CCN(CCC(F)F)C3)cc2)c2ccc(C(=O)O)cc2CCC1.Cl (single isomer, unassigned; isomer 1) [Compound 32, 9-(4-((1-(3,3-difluoropropyl)pyrrolidin-3-yl)methyl)phenyl)-8-(4-fluoro-2,6-dimethylphenyl)-6,7-dihydro-5H-benzo[7]annulene-3-carboxylic acid hydrochloride, Isomer 1]",76
2,"COc1ccc(C2=C(c3ccc(CC4CCN(CCCF)C4)cc3)c3ccc(C(=O)O)cc3CCC2)cn1 (single isomer, unassigned; isomer 1) [Compound 14, 9-(4-((1-(3-fluoropropyl)pyrrolidin-3-yl)methyl)phenyl)-8-(6-methoxypyridin-3-yl)-6,7-dihydro-5H-benzo[7]annulene-3-carboxylic acid, Isomer 1]",88
3,"Cl.O=C(O)c1ccc2c(c1)OCCC(c1ccc(Cl)cc1Cl)=C2c1ccc(CC2CCN(CCCF)C2)cc1 (single isomer, unassigned; isomer 1) [Compound 7, 4-(2,4-dichlorophenyl)-5-(4-((1-(3-fluoropropyl)pyrrolidin-3-yl)methyl)phenyl)-2,3-dihydrobenzo[b]oxepine-8-carboxylic acid hydrochloride, Isomer 1]",80
4,"Cl.Oc1ccc2c(c1)CCCC(c1ccc(Cl)cc1Cl)=C2c1ccc(CC2CCN(CCC(F)F)C2)cc1 (single isomer, unassigned; isomer 1) [Compound 31, 8-(2,4-dichlorophenyl)-9-(4-((1-(3,3-difluoropropyl)pyrrolidin-3-yl)methyl)phenyl)-6,7-dihydro-5H-benzo[7]annulen-3-ol hydrochloride, Isomer 1]",73
5,"O=C(O)c1ccc2c(c1)CCCC(c1ccc(Cl)cc1Cl)=C2c1ccc(C(F)(F)C2CCN(CCCF)C2)cc1 (single isomer, unassigned; isomer 1) [Compound 26, 8-(2,4-dichlorophenyl)-9-(4-(difluoro(1-(3-fluoropropyl)pyrrolidin-3-yl)methyl)phenyl)-6,7-dihydro-5H-benzo[7]annulene-3-carboxylic acid, Isomer 1]",84
6,"Cl.Oc1ccc2c(c1)CCCC(c1ccc(Cl)cc1Cl)=C2c1ccc(CC2CCN(CCCF)C2)cc1 (single isomer, unassigned; isomer 1) [Compound 29, 8-(2,4-dichlorophenyl)-9-(4-((1-(3-fluoropropyl)pyrrolidin-3-yl)methyl)phenyl)-6,7-dihydro-5H-benzo[7]annulene-3-ol hydrochloride, Isomer 1]",76
7,"O=C(O)c1ccc2c(c1)CCCC(c1ccc(Cl)cc1Cl)=C2c1ccc(C[C@@H]2CCN(CCCF)C2)cc1 [Compound 24, 8-(2,4-dichlorophenyl)-9-(4-((1-(3-fluoropropyl)pyrrolidin-3-yl)methyl)phenyl)-6,7-dihydro-5H-benzo[7]annulene-3-carboxylic acid, (R) Isomer]",46
8,"O=C(O)c1ccc2c(c1)CCCC(c1ccc(F)cc1F)=C2c1ccc(CC2CCN(CCC(F)F)C2)cc1 (single isomer, unassigned; isomer 1) [Compound 10, 8-(2,4-difluorophenyl)-9-(4-((1-(3,3-difluoropropyl)pyrrolidin-3-yl)methyl)phenyl)-6,7-dihydro-5H-benzo[7]annulene-3-carboxylic acid, Isomer 1]",84
9,"O=C(O)c1ccc2c(c1)CCCC(c1ccc(F)cc1C(F)(F)F)=C2c1ccc(CC2CCN(CCCF)C2)cc1 (single isomer, unassigned; isomer 1) [Compound 18, 8-(4-fluoro-2-(trifluoromethyl)phenyl)-9-(4-((1-(3-fluoropropyl)pyrrolidin-3-yl)methyl)phenyl)-6,7-dihydro-5H-benzo[7]annulene-3-carboxylic acid, Isomer 1]",86
10,"Cl.O=C(O)c1ccc2c(c1)SCC(c1ccc(Cl)cc1Cl)=C2c1ccc(CC2CCN(CCCF)C2)cc1 (single isomer, unassigned; isomer 1) [Compound 25, 3-(2,4-dichlorophenyl)-4-(4-((1-(3-fluoropropyl)pyrrolidin-3-yl)methyl)phenyl)-2H-thiochromene-7-carboxylic acid hydrochloride, Isomer 1]",68
11,"Cc1cc(F)ccc1C1=C(c2ccc(CC3CCN(CCCF)C3)cc2)c2ccc(C(=O)O)cc2CCC1 (single isomer, unassigned; isomer 1) [Compound 17, 8-(4-fluoro-2-methylphenyl)-9-(4-((1-(3-fluoropropyl)pyrrolidin-3-yl)methyl)phenyl)-6,7-dihydro-5H-benzo[7]annulene-3-carboxylic acid, Isomer 1]",84

# The remaining lines, values ahead:
row,% Degradation At 0.3 μM [%],SMILES
1,92,"Cl.O=C(O)c1ccc2c(c1)CCCC(c1ccc(C(F)(F)F)cc1)=C2c1ccc(CC2CCN(CCCF)C2)cc1 (single isomer, unassigned; isomer 1) [Compound 38, 9-(4-((1-(3-fluoropropyl)pyrrolidin-3-yl)methyl)phenyl)-8-(4-(trifluoromethyl)phenyl)-6,7-dihydro-5H-benzo[7]annulene-3-carboxylic acid hydrochloride, Isomer 1]"
2,84,"Cc1cc(F)cc(C)c1C1=C(c2ccc(CC3CCN(CCCF)C3)cc2)c2ccc(C(=O)O)cc2CCC1.Cl (single isomer, unassigned; isomer 1) [Compound 35, 8-(4-fluoro-2,6-dimethylphenyl)-9-(4-((1-(3-fluoropropyl)pyrrolidin-3-yl)methyl)phenyl)-6,7-dihydro-5H-benzo[7]annulene-3-carboxylic acid hydrochloride, Isomer 1]"
3,80,"Oc1ccc2c(c1)SCCC(c1ccc(Cl)cc1Cl)=C2c1ccc(CC2CCN(CCCF)C2)cc1 (single isomer, unassigned; isomer 1) [Compound 43, 4-(2,4-dichlorophenyl)-5-(4-((1-(3-fluoropropyl)pyrrolidin-3-yl)methyl)phenyl)-2,3-dihydrobenzo[b]thiepin-8-ol, Isomer 1]"
4,85,"Cc1cccc(C2=C(c3ccc(CC4CCN(CCC(F)F)C4)cc3)c3ccc(C(=O)O)cc3CCC2)c1C(F)(F)F.Cl (single isomer, unassigned; isomer 1) [Compound 34, 9-(4-((1-(3,3-difluoropropyl)pyrrolidin-3-yl)methyl)phenyl)-8-(3-methyl-2-(trifluoromethyl)phenyl)-6,7-dihydro-5H-benzo[7]annulene-3-carboxylic acid hydrochloride, Isomer 1]"
5,100,"CC1CCc2cc(C(=O)O)ccc2C(c2ccc(CC3CCN(CCCF)C3)cc2)=C1c1ccc(C(F)(F)F)cc1 (single isomer, unassigned; isomer 1) [Compound 41, 9-(4-((1-(3-fluoropropyl)pyrrolidin-3-yl)methyl)phenyl)-7-methyl-8-(4-(trifluoromethyl)phenyl)-6,7-dihydro-5H-benzo[7]annulene-3-carboxylic acid, Isomer 1]"
6,76,"Cl.O=C(O)c1ccc2c(c1)CCCC(c1cccc(C(F)(F)F)c1)=C2c1ccc(CC2CCN(CCCF)C2)cc1 (single isomer, unassigned; isomer 1) [Compound 39, 9-(4-((1-(3-fluoropropyl)pyrrolidin-3-yl)methyl)phenyl)-8-(3-(trifluoromethyl)phenyl)-6,7-dihydro-5H-benzo[7]annulene-3-carboxylic acid hydrochloride, Isomer 1]"
7,90,"CC1CCc2cc(C(=O)O)ccc2C(c2ccc(CC3CCN(CCCF)C3)cc2)=C1c1ccc(C(F)(F)F)cc1 (single isomer, unassigned; isomer 2) [Compound 42, 9-(4-((1-(3-fluoropropyl)pyrrolidin-3-yl)methyl)phenyl)-7-methyl-8-(4-(trifluoromethyl)phenyl)-6,7-dihydro-5H-benzo[7]annulene-3-carboxylic acid, Isomer 2]"

# From US20250248970A1, “NOVEL SUBSTITUTED FLUORINATED N-PROPYL-PYRROLIDINE COMPOUNDS, PROCESSES FOR THEIR PREPARATION AND THERAPEUTIC USES THEREOF” (SANOFI, priority 2022, published 2025)
